Data: ChEMBL document CHEMBL1152529, “Synthesis, antifungal, haemolytic and cytotoxic activities of a series of bis(alkylpyridinium)alkanes” (Bioorg Med Chem, 2009)
pIC50: −log10 of the molar value.

Assays:
Cryptococcus neoformans = assay: Antifungal activity against Cryptococcus neoformans ATCC 90112 after 48 to 72 hrs by broth microdilution method; format: functional
Candida albicans = assay: Antifungal activity against Candida albicans ATCC 10231 after 48 to 72 hrs by broth microdilution method; format: functional
Pichia kudriavzevii = assay: Antifungal activity against Candida krusei ATCC 6258 after 48 to 72 hrs by broth microdilution method; format: functional
Candida parapsilosis = assay: Antifungal activity against Candida parapsilosis ATCC 22019 after 48 to 72 hrs by broth microdilution method; format: functional; conditions: Lodderomyces parapsilosis
Nakaseomyces glabratus = assay: Antifungal activity against Candida glabrata 04-202345 after 48 to 72 hrs by broth microdilution method; format: functional
Aspergillus fumigatus = assay: Antifungal activity against Aspergillus fumigatus ATCC 204305 after 48 to 72 hrs by broth microdilution method; format: functional
Aspergillus flavus = assay: Antifungal activity against Aspergillus flavus ATCC 204304 after 48 to 72 hrs by broth microdilution method; format: functional
Aspergillus terreus = assay: Antifungal activity against Aspergillus terreus 05-202844 after 48 to 72 hrs by broth microdilution method; format: functional
Lomentospora prolificans = assay: Antifungal activity against Scedosporium prolificans 05-203060 after 48 to 72 hrs by broth microdilution method; format: functional
Scedosporium apiospermum = assay: Antifungal activity against Scedosporium apiospermum 05-203100 after 48 to 72 hrs by broth microdilution method; format: functional
Rhizopus arrhizus = assay: Antifungal activity against Rhizopus oryzae 05-203111 after 48 to 72 hrs by broth microdilution method; format: functional
Exophiala spinifera = assay: Antifungal activity against Exophiala spinifera 03-200803 after 48 to 72 hrs by broth microdilution method; format: functional
Curvularia australiensis = assay: Antifungal activity against Bipolaris australiensis 03-201798 after 48 to 72 hrs by broth microdilution method; format: functional
[1] = molecular target: Phospholipase A2, major isoenzyme (Sus scrofa, UniProt P00592); assay: Inhibition of porcine pancreatic PLA2 after 1 hr by radiometric method
Phospholipase A2, major isoenzyme, sequence (P00592 whole entry): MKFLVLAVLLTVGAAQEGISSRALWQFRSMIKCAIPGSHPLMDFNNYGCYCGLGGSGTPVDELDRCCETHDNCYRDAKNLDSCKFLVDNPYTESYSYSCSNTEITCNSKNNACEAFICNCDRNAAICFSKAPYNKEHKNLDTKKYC

[2] = Inhibition of phospholipid fatty acyl chain hydrolysis activity of Cryptococcus neoformans var. grubii H99 PLB assessed as formation of radiolabeled free fatty acid at pH 4 by radiometric assay
[3] = Cytotoxicity against human erythrocytes assessed as hemolysis after 1 hr; format: cell-based, Erythrocyte
A549 = assay: Cytotoxicity against human A549 cells after 3 hrs by MTS assay; format: cell-based; conditions: A549, 3 h
MDCK = assay: Cytotoxicity against MDCK cells after 3 hrs by MTS assay; format: cell-based; conditions: Canis lupus familiaris
[4] = Selectivity index, ratio of HC50 for human erythrocytes to MIC for Cryptococcus neoformans ATCC 90112; format: functional
[5] = Selectivity index, ratio of HC50 for human erythrocytes to MIC for Candida albicans ATCC 10231; format: functional
[6] = Selectivity index, ratio of IC50 for human A549 cells to MIC for Cryptococcus neoformans ATCC 90112; format: functional
[7] = Selectivity index, ratio of IC50 for human A549 cells to MIC for Candida albicans ATCC 10231; format: functional
[8] = Selectivity index, ratio of IC50 for MDCK cells to MIC for Cryptococcus neoformans ATCC 90112; format: functional
[9] = Selectivity index, ratio of IC50 for MDCK cells to MIC for Candida albicans ATCC 10231; format: functional

`CCCCCc1cc[n+](CCCCCCCCCCCC[n+]2ccc(CCCCC)cc2)cc1.[Cl-].[Cl-]` showed an MIC (Cryptococcus neoformans) of 1.4 µM, an MFC (Cryptococcus neoformans; Cryptococcus neoformans, ATCC 90112) of 1.4 µM and an MIC (Candida albicans) of 2.7 µM. It also gave an MFC (Candida albicans; Candida albicans, ATCC 10231) of 2.7 µM, an MFC (Pichia kudriavzevii) of 22 µM and an MIC (Pichia kudriavzevii) of 11 µM. For the same compound, the MFC (Candida parapsilosis) was 2.7 µM, the MIC (Candida parapsilosis) was 1.4 µM and the MFC (Nakaseomyces glabratus) was 2.7 µM. It also gave an MIC (Nakaseomyces glabratus) of 2.7 µM, an MFC (Aspergillus fumigatus) of 87.5 µM and an MIC (Aspergillus fumigatus) of 87.5 µM. For the same compound, the MFC (Aspergillus flavus) was 87.5 µM, the MIC (Aspergillus flavus) was 44 µM and the MFC (Aspergillus terreus) was 22 µM. The MIC (Aspergillus terreus) was 11 µM, the MFC (Lomentospora prolificans) was 5.5 µM and the MIC (Lomentospora prolificans) was 2.7 µM. It also gave an MFC (Scedosporium apiospermum) of 5.5 µM, an MIC (Scedosporium apiospermum) of 5.5 µM and an MFC (Rhizopus arrhizus) of 11 µM. The MIC (Rhizopus arrhizus) was 2.7 µM, the MFC (Exophiala spinifera) was 0.7 µM and the MIC (Exophiala spinifera) was 0.7 µM. The MFC (Curvularia australiensis) was 11 µM, the MIC (Curvularia australiensis) was 11 µM and the pIC50 [1] was under 3.60. It also gave a pIC50 [2] of 3.98, an HC50 at 1 h [3] of over 350 µM and a pIC50 (A549) of 3.94. For the same compound, the pIC50 (MDCK) was 3.82, the “Selectivity Index” value [4] was over 100 and the “Selectivity Index” value [5] was over 100. For the same compound, the “Selectivity Index” value [6] was over 40, the “Selectivity Index” value [7] was over 40 and the “Selectivity Index” value [8] was over 40. The “Selectivity Index” value [9] was over 40.
